Article PMC8268581, “Identification of 3,4-Dihydro-2H,6H-pyrimido[1,2-c][1,3]benzothiazin-6-imine Derivatives as Novel Selective Inhibitors of Plasmodium falciparum Dihydroorotate Dehydrogenase” (International Journal of Molecular Sciences, 2021)
Like-named read-outs stand apart in the source and are kept apart here.

Legend:
[1] = Cytotoxicity assay, HDF (Cell Counting Kit-8); assay type: cell-based; conditions: human dermal fibroblast (HDF) cells, normal human dermal fibroblasts
Experimental: (§1) Human dermal fibroblast cells (HDF, Zenbio, Inc., Durham, NC, USA) were cultured in Dulbecco’s Modified Eagle Medium/Nutrient Mixture F-12 medium (DMEM/F12, Gibco), human pancreatic carcinoma cells (PANC-1, DS Pharma Biomedical, Co., Ltd.) were cultured in DMEM (Gibco), and human colorectal adenocarcinoma cells (DLD-1, Taiho Pharmaceutical Company) were cultured in RPMI-1640 medium (FUJIFILM Wako Pure Chemicals). The culture mediums were supplemented with 10% (v/v) heat-inactivated fetal bovine serum (Gibco) and the cells were maintained at 37 °C under 5% CO2.
(§2) HDF, PANC-1, and DLD-1 were seeded at 2.5 × 10^4 cells/well on a 96-well plate and incubated at 37 °C under 5% CO2 overnight. The cells were then washed with PBS and the medium was replaced with 99 µL of fresh media. Then, 1 µL of the compounds or DMSO was added to the respective wells. As controls, wells containing 1% (v/v) DMSO in column 1 and wells containing only the culture medium in column 12 were used as the negative and positive controls, respectively. After 48 h of incubation, the cells were washed with PBS, and 99 µL of fresh media was replaced, followed by the addition of 10 µL of Cell Counting Kit-8 (Dojindo) to each well. After 3 h of incubation, the absorbance was measured at 450 nm using a SpectraMax®® Paradigm®® Multi-Mode microplate Reader. The calculation of cell viability in the test well was based on the absorbance of control wells according to the manufacturer’s protocol. The mean of quadruplet values was used to calculate the CC50 using GraphPad Prism 8.0 software.

PfDHODH = target: T1, PfDHODH (Plasmodium falciparum, UniProt Q08210); test: PfDHODH inhibition assay (DCIP end-point, 384-well); assay type: biochemical
T1 construct: encoding amino acid residues 158 to 569 fused to a His6-SUMO tag in its N-terminus; His6-SUMO (N, cleaved yes); made in house; host or cells: E. coli BL21 Star (DE3), pETSUMO/PfDHODH
Experimental: The screening of 40,400 compounds was conducted in 384-well plates by adapting the end-point assay reported before. First, 1 µL of 200 µM compound was transferred into 384-well plates using a Benchtop Multi-Pipetter EDR-384SR (Biotech Co., Ltd., Tokyo, Japan). […] Next, 38 µL of assay mix (100 mM HEPES-NaOH pH 7.5, 5% (v/v) glycerol, 150 mM NaCl, 0.05% (v/v) Triton X-100, 15 µM decylubiquinone (dUQ, Sigma), 120 µM 2,6-dichlorophenolindophenol (DCIP, Sigma), and 20 nM PfDHODH) were dispensed into all wells and mixed at 600 rpm for 1 min by a MixMate®® (Eppendorf). The reaction was started by the addition of 5 µL of 1.8 mM L-DHO (Sigma) as the substrate and mixed as described above for 20 s. The absorbance at 600 nm was recorded using a SpectraMax®® Paradigm®® Multi-Mode Microplate Reader (Molecular Devices) before (t0) and after 20 min (t20) incubation at room temperature. The readings at t0 were subtracted from t20, and PfDHODH inhibition was calculated as the inhibition relative to the negative and positive controls in a single-point assay. Hits were defined as compounds inhibiting more than 50% of PfDHODH activity at 4.5 µM. The quality of the screening system was evaluated by calculating statistical parameters: Z′-factor, S/N, S/B, SW, and CV, as previously reported. The IC50 values of the hit compounds were determined using the same assay system containing serial dilutions of each compound in triplicates (22.7, 6.8, 2.27, 0.68, 0.227, 0.068, 0.023, 0.007, 0.002, 0.0007 µM) using GraphPad Prism 8.0 software (GraphPad Software Inc., San Diego, CA, USA).

[2] = Cytotoxicity assay, DLD-1 (Cell Counting Kit-8); assay type: cell-based; conditions: DLD-1 human colorectal adenocarcinoma cells
Experimental: as §1, §2

[3] = target: mammalian mitochondrial complexes II–III (Bos taurus, UniProt P00157+P35720+Q3T189+Q95123); test: succinate-cytochrome c reductase (complexes II–III) activity assay; assay type: biochemical; conditions: bovine heart mitochondria, range tested 0.0007 to 22.7 µM; read-out: IC50 Mammalian Mitochondrial CII–III
Experimental: (§3) Bovine heart mitochondria were prepared as previously described. The NADH-cytochrome c reductase (complexes I–III) and succinate-cytochrome c reductase (complexes II–III) activities were assayed in 384-well plates following an established protocol with small modifications. Complex I–III activity was assayed in a reaction mix containing 50 mM phosphate buffer pH 7.4, 2 mM KCN, 200 µM cytochrome c (cytochrome c from horse heart, Nacalai tesque), and 15 µg/mL mitochondria. Plates containing 1 µL serial dilutions of PfDHODH inhibitors were prepared and mixed with 38 µL of the reaction mix, as described above. The reaction was started by the addition of 5 µL of 2.6 mM NADH, and the assay was performed as described for PfDHODH, but at 550 nm and with 15 min of incubation. Complex II–III activity was assayed similarly to complex I–III activity but with 100 µM cytochrome c and 25 µg/mL mitochondria, and the reaction was started by 10 mM succinate. For both assays, DMSO and 5 µM ascochlorin were used as negative and positive controls, respectively. Assays were performed in triplicate.

[4] = target: mammalian mitochondrial complexes I–III (Bos taurus, UniProt P00157+P03887+P17694+P42026); test: NADH-cytochrome c reductase (complexes I–III) activity assay; assay type: biochemical; conditions: bovine heart mitochondria, range tested 0.0007 to 22.7 µM; read-out: IC50 Mammalian Mitochondrial CI–III
Experimental: as §3

[5] = recombinant tag-free PfDHODH, 20 min, serial dilutions 0.0007-22.7 µM, read-out: IC50 DHODH Pf

T1 sequence (Q08210 158-569): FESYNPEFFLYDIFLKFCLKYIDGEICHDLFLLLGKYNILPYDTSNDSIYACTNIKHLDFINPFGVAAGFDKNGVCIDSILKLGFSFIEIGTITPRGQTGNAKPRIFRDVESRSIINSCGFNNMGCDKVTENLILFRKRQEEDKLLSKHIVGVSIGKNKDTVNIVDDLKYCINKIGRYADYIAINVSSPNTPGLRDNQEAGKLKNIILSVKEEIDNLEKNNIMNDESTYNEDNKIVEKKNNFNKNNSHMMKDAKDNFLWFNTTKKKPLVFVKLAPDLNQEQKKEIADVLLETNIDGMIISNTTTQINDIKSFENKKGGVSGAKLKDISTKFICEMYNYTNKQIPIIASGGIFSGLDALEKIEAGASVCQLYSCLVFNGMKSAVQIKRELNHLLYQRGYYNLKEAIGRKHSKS

SMILES	EC50 at 48 h [1] [µM]	IC50 (PfDHODH; [5]) [µM]	EC50 at 48 h [2] [µM]	IC50 [3] [µM]	IC50 [4] [µM]	fold increase in the PfDHODH IC50 compared to 1 (PfDHODH) [fold]	IC50 (PfDHODH) [µM]
O=[N+]([O-])c1ccc(-c2ccc3c(c2)SN2CCCN=C32)cc1 [Compound 39]	> 10	1.3 ± 0.04	> 10	> 22.7	> 22.7		
c1cc2c(cc1-c1ccc3c(c1)SN1CCCN=C31)OCO2 [Compound 32]	> 10	1.29 ± 0.09	> 10	> 22.7	> 22.7		
N=C1Sc2cc(-c3ccc4c(C(=O)OC(F)(F)F)c[nH]c4c3)ccc2C2=NCCCN12 [Compound 6]	> 10	0.7 ± 0.04	> 10	> 22.7	> 22.7		
N=C1Sc2cc(-c3ccccc3-c3ccccc3)ccc2C2=NCCCN12 [Compound 27]	> 10	3.3 ± 0.1	> 10	> 22.7	> 22.7		
N=C1Sc2cc(-c3ccc(C(F)(F)F)cc3)ccc2C2=NCCCN12 [Compound 15]	> 10	2.31 ± 0.11	> 10	> 22.7	> 22.7		
C#CCOCc1ccc(C(=O)c2ccc(-c3ccc4c(c3)SC(=N)N3CCCN=C43)cc2)cc1 [Compound 20]	> 10	1.21 ± 0.06	> 10	> 22.7	> 22.7		
N=C1Sc2cc(-c3ccc4ccccc4c3)ccc2C2=NCCCN12 [Compound 1]	> 10	0.65 ± 0.05	> 10	> 22.7	> 22.7		
CSc1ccc(-c2ccc3c(c2)SC(=N)N2CCCN=C32)cc1 [Compound 17]	> 10	0.96 ± 0.07	> 10	> 22.7	> 22.7		
c1ccc(-c2ccc3c(c2)SN2CCCN=C32)cc1 [Compound 30]	> 10	4.26 ± 0.12	> 10	> 22.7	> 22.7		
N=C1Sc2cc(-c3cccc([N+](=O)[O-])c3)ccc2C2=NCCCN12 [Compound 21]	> 10	3.68 ± 0.31	> 10	> 22.7	> 22.7		
CCc1cccc(-c2ccc3c(c2)SC(=N)N2CCCN=C32)c1 [Compound 25]	> 10	1.52 ± 0.08	> 10	> 22.7	> 22.7		
COC(=O)c1ccc(-c2ccc3c(c2)SN2CCCN=C32)cc1 [Compound 37]	8.43	1.15 ± 0.07	> 10	> 22.7	> 22.7		
N=C1Sc2cc(-c3cc4ccccc4o3)ccc2C2=NCCCN12 [Compound 7]	> 10	1.3 ± 0.05	> 10	> 22.7	> 22.7		
O=[N+]([O-])c1ccccc1-c1ccc2c(c1)SN1CCCN=C21 [Compound 43]	9.44	1.15 ± 0.06	> 10	> 22.7	> 22.7		
N=C1Sc2cc(-c3ccc4c(c3)OCCO4)ccc2C2=NCCCN12 [Compound 4]	> 10	0.97 ± 0.08	> 10	> 22.7	> 22.7		
N=C1Sc2cc(-c3ccc4cnccc4c3)ccc2C2=NCCCN12 [Compound 5]	> 10	0.96 ± 0.09	> 10	> 22.7	> 22.7		
COC(=O)c1ccc(-c2ccc3c(c2)SC(=N)N2CCCN=C32)cc1 [Compound 13]	> 10	1.22 ± 0.05	> 10	> 22.7	> 22.7		
CC(C)(C)N=C1Sc2cc(-c3cc4ccccc4s3)ccc2C2=NCCCN12 [Compound 10]	> 10	3.84 ± 0.09	> 10	> 22.7	> 22.7	6	
N=C1Sc2cc(-c3ccccc3)ccc2C2=NCCCN12 [Compound 12]	> 10	0.68 ± 0.05	> 10	> 22.7	> 22.7		
N=C1Sc2cc(-c3ccc4c(c3)OCO4)ccc2C2=NCCCN12 [Compound 3]	> 10	1.18 ± 0.04	> 10	> 22.7	> 22.7		
COC(=O)c1cccc(-c2ccc3c(c2)SN2CCCN=C32)c1 [Compound 40]	9.16	1.43 ± 0.02	> 10	> 22.7	> 22.7		
N#Cc1ccc(-c2ccc3c(c2)SC(=N)N2CCCN=C32)cc1 [Compound 14]	> 10	3.89 ± 0.23	> 10	> 22.7	> 22.7		
CC(C)Oc1cccc(-c2ccc3c(c2)SC(=N)N2CCCN=C32)c1 [Compound 22]	> 10	1.56 ± 0.05	> 10	> 22.7	> 22.7		
c1ccc(-c2ccc3c(c2)C2=NCCCN2S3)cc1 [Compound 36]	8.38	1.51 ± 0.04	> 10	> 22.7	> 22.7		
N=C1Sc2cc(/C=C/c3ccccc3)ccc2C2=NCCCN12 [Compound 8]	> 10		> 10	> 22.7	> 22.7		1.07 ± 0.05
N=C1Sc2cc(-c3ccc(OC(F)(F)F)cc3)ccc2C2=NCCCN12 [Compound 18]	> 10	1.43 ± 0.06	> 10	> 22.7	> 22.7		
c1ccc2c(-c3ccc4c(c3)SN3CCCN=C43)cccc2c1 [Compound 31]	> 10	1.1 ± 0.08	> 10	> 22.7	> 22.7		
N=C1Sc2cc(-c3ccc(C(=O)c4ccccc4)cc3)ccc2C2=NCCCN12 [Compound 19]	> 10	1.07 ± 0.05	> 10	> 22.7	> 22.7		
COc1ccccc1-c1ccc2c(c1)SN1CCCN=C21 [Compound 42]	9.77	1.18 ± 0.05	> 10	> 22.7	> 22.7		
